According to US10221174B2, “N-(phenylsulfonyl)benzamides and related compounds as BCL-2 inhibitors” (THE REGENTS OF THE UNIVERSITY OF MICHIGAN, priority 2016, dated 2019):
Like-named read-outs stand apart in the source and are kept apart here.

Experiments:
[1] = Pharmacokinetics in rats; assay type: in vivo
Experimental: The pharmacokinetics of ABT-199 and representative Compounds of the Disclosure were evaluated in rats at an IV dose of 2 mg/kg and an oral dose of 20 mg/kg.

[2] = system: RS4;11 cells; assay: RS4;11 cell viability, CCK-8 assay; assay type: cell-based; details: Homo sapiens, RS4-11, 96 h, CCK-8, 4 days, read-out: RS4, 11 IC50 (Bcl-2 dependent)
Experimental: RS4;11 cells were obtained from American Type Culture Collection (ATCC). They were used within three months of thawing fresh vials. Cells were maintained in the recommended culture medium with 10% FBS at 37° C. and an atmosphere of 5% CO2.
The effect of representative Compounds of the Disclosure on cell viability was determined using Cell Counting Kit-8 (CCK-8) assay (Dojindo, Rockville, Md.) according to the manufacturer's instructions. 200 μL of a RS4;11 cell suspension (10000 cells/well) in culture medium were seeded into 96-well plates and cultured overnight. Each tested compound was serially diluted in culture medium, and 20 μL of the compound dilution was added to the corresponding well of the cell plate. After the addition of the tested compound, the cells were incubated at 37° C. in an atmosphere of 5% CO2 for 4 days. At the end of 4 days, 10 μL of CCK-8 solution was added to each well of the plate and incubated for 1-4 hours. The plates were read at 450 nm on the microplate spectrophotometer (Epoch2, BioTek). The readings were normalized to the vehicle cells, and the IC50 was calculated by nonlinear regression analysis using GraphPad Prism 5 software.

[3] = system: MV4;11 cell line; assay: MV4;11 inhibition; assay type: cell-based

Structure (SMILES)	IC50 [2]	IC50 ([3]; Homo sapiens, MV4-11)	other results
CC1(C)CCC(CN2CCN(c3ccc(C(=O)NS(=O)(=O)c4ccc(NCC5CCOCC5)c([N+](=O)[O-])c4)c(Oc4cnc5[nH]ccc5c4)c3)CC2)=C(c2ccc(Cl)cc2)C1 [ABT-199, Venetoclax, reference compound]			AUC0-∞ IV ([1]; IV 2 mg/kg): 5446 n · gh/mL; AUC0-∞ PO ([1]; oral 20 mg/kg): 20812 n · gh/mL; F(AUC0-t) ([1]; oral 20 mg/kg vs IV 2 mg/kg): 38.2%; MRT inf ([1]; rat, in vivo, IV 2 mg/kg): 1.23 h; AUC(0-t) ([1]; rat, in vivo, IV 2 mg/kg, read-out: AUC0-t IV): 5440 ng·h/mL; clearance ([1]; rat, in vivo, IV 2 mg/kg, read-out: CL (iv) (converted)): 6.57 mL/min/kg; Cmax ([1]; rat, in vivo, IV 2 mg/kg, read-out: Cmax IV): 8740 ng/mL; Tmax ([1]; rat, in vivo, IV 2 mg/kg, read-out: Tmax IV): 0.083 h; Vd ([1]; rat, in vivo, IV 2 mg/kg, read-out: Vss (iv)): 0.496 L/kg; half-life ([1]; rat, in vivo, IV 2 mg/kg, read-out: t1/2 IV (converted)): 4.32 h; AUC(0-t) ([1]; rat, in vivo, oral 20 mg/kg, read-out: AUC0-t PO): 20800 ng·h/mL; Cmax ([1]; rat, in vivo, oral 20 mg/kg, read-out: Cmax PO): 6000 ng/mL; Tmax ([1]; rat, in vivo, oral 20 mg/kg, read-out: Tmax PO): 1.67 h; half-life ([1]; rat, in vivo, oral 20 mg/kg, read-out: t1/2 PO (converted)): 3.22 h
O=C(NS(=O)(=O)c1ccc(NC[C@@H]2COCCO2)c([N+](=O)[O-])c1)c1ccc(C2=CCN(CC3=C(c4ccc(Cl)cc4)CC4(CC3)COC4)CC2)cc1Oc1cnc2[nH]ccc2c1 [Cpd. No. 5, (R)-N-((4-(((1,4-dioxan-2-yl)methyl)amino)-3-nitrophenyl)sulfonyl)-2-((1H-pyrrolo[2,3-b]pyridin-5-yl)oxy)-4-(1-((6-(4-chlorophenyl)-2-oxaspiro[3.5]non-6-en-7-yl)methyl)-1,2,3,6-tetrahydropyridin-4-yl)benzamide]	22 nM		
O=C(NS(=O)(=O)c1cc([N+](=O)[O-])n(CC2CCOCC2)c1)c1ccc(N2CCN(CC3=C(c4ccc(Cl)cc4)CC4(CCC4)CC3)CC2)cc1Oc1cnc2[nH]ccc2c1 [Cpd. No. 25, 2-((1H-pyrrolo[2,3-b]pyridin-5-yl)oxy)-4-(4-((6-(4-chlorophenyl)spiro[3.5]non-6-en-7-yl)methyl)piperazin-1-yl)-N-((5-nitro-1-((tetrahydro-2H-pyran-4-yl)methyl)-1H-pyrrol-3-yl)sulfonyl)benzamide]	1090 nM	5150 nM	
O=C(NS(=O)(=O)c1cc(F)c(NC[C@H]2COCCO2)c([N+](=O)[O-])c1)c1ccc(N2CCN(CC3=C(c4ccc(Cl)cc4)CC4(CCC4)CC3)CC2)cc1Oc1cnc2[nH]ccc2c1 [Cpd. No. 40, (S)-N-((4-(((1,4-dioxan-2-yl)methyl)amino)-3-fluoro-5-nitrophenyl)sulfonyl)-2-((1H-pyrrolo[2,3-b]pyridin-5-yl)oxy)-4-(4-((6-(4-chlorophenyl)spiro[3.5]non-6-en-7-yl)methyl)piperazin-1-yl)benzamide]	1.4 nM	2.46 nM	
O=C(NS(=O)(=O)c1cc([N+](=O)[O-])c(NC[C@H]2COCCO2)cc1F)c1ccc(N2CCN(CC3=C(c4ccc(Cl)cc4)CC4(CCC4)CC3)CC2)cc1Oc1cnc2[nH]ccc2c1 [Cpd. No. 44, (S)-N-((4-(((1,4-dioxan-2-yl)methyl)amino)-2-fluoro-5-nitrophenyl)sulfonyl)-2-((1H-pyrrolo[2,3-b]pyridin-5-yl)oxy)-4-(4-((6-(4-chlorophenyl)spiro[3.5]non-6-en-7-yl)methyl)piperazin-1-yl)benzamide]	7160 nM		
O=C(NS(=O)(=O)c1ccc(NC[C@@H]2COCCO2)c([N+](=O)[O-])c1)c1ccc(N2CCN(CC3=C(c4ccc(Cl)cc4)CC4(CC3)COC4)CC2)cc1Oc1cnc2[nH]ccc2c1 [compound 8, (R)-N-((4-(((1,4-dioxan-2-yl)methyl)amino)-3-nitrophenyl)sulfonyl)-2-((1H-pyrrolo[2,3-b]pyridin-5-yl)oxy)-4-(4-((6-(4-chlorophenyl)-2-oxaspiro[3.5]non-6-en-7-yl)methyl)piperazin-1-yl)benzamide]	3.7 nM		
O=C(NS(=O)(=O)c1ccc(NCC2CCOCC2)c([N+](=O)[O-])c1)c1ccc(C2=CCN(CC3=C(c4ccc(Cl)cc4)CC4(CC3)COC4)CC2)cc1Oc1cnc2[nH]ccc2c1 [compound 9, 2-((1H-pyrrolo[2,3-b]pyridin-5-yl)oxy)-4-(1-((6-(4-chlorophenyl)-2-oxaspiro[3.5]non-6-en-7-yl)methyl)-1,2,3,6-tetrahydropyridin-4-yl)-N-((3-nitro-4-(((tetrahydro-2H-pyran-4-yl)methyl)amino)phenyl)sulfonyl)benzamide]	28 nM		
O=C(NS(=O)(=O)c1ccc(NC[C@@H]2COCCO2)c([N+](=O)[O-])c1)c1ccc(N2CCN(CC3=C(c4ccc(Cl)cc4)CC4(CCC4)CC3)CC2)cc1Oc1cnc2[nH]ccc2c1 [compound 13, (R)-N-((4-(((1,4-dioxan-2-yl)methyl)amino)-3-nitrophenyl)sulfonyl)-2-((1H-pyrrolo[2,3-b]pyridin-5-yl)oxy)-4-(4-((6-(4-chlorophenyl)spiro[3.5]non-6-en-7-yl)methyl)piperazin-1-yl)benzamide]	2.8 nM		
COCCOCCn1nc2cc(S(=O)(=O)NC(=O)c3ccc(N4CCN(CC5=C(c6ccc(Cl)cc6)CC6(CCC6)CC5)CC4)cc3Oc3cnc4[nH]ccc4c3)cc([N+](=O)[O-])c2c1F [compound 22, 2-((1H-pyrrolo[2,3-b]pyridin-5-yl)oxy)-4-(4-((6-(4-chlorophenyl)spiro[3.5]non-6-en-7-yl)methyl)piperazin-1-yl)-N-((3-fluoro-2-(2-(2-methoxyethoxy)ethyl)-4-nitro-2H-indazol-6-yl)sulfonyl)benzamide]	20 nM	58.9 nM	
O=C(NS(=O)(=O)C1=CC2C(=O)N(C3CCOCC3)CC2C([N+](=O)[O-])=C1)c1ccc(N2CCN(CC3=C(c4ccc(Cl)cc4)CC4(CCC4)CC3)CC2)cc1Oc1cnc2[nH]ccc2c1 (stereo not shown) [compound 23, 2-((1H-pyrrolo[2,3-b]pyridin-5-yl)oxy)-4-(4-((6-(4-chlorophenyl)spiro[3.5]non-6-en-7-yl)methyl)piperazin-1-yl)-N-((7-nitro-3-oxo-2-(tetrahydro-2H-pyran-4-yl)-2,3,3a,7a-tetrahydro-1H-isoindol-5-yl)sulfonyl)benzamide]	19 nM	54.6 nM	
O=C(NS(=O)(=O)c1cc([N+](=O)[O-])n(CCC2CCOCC2)c1)c1ccc(N2CCN(CC3=C(c4ccc(Cl)cc4)CC4(CCC4)CC3)CC2)cc1Oc1cnc2[nH]ccc2c1 [compound 24, 2-((1H-pyrrolo[2,3-b]pyridin-5-yl)oxy)-4-(4-((6-(4-chlorophenyl)spiro[3.5]non-6-en-7-yl)methyl)piperazin-1-yl)-N-((5-nitro-1-(2-(tetrahydro-2H-pyran-4-yl)ethyl)-1H-pyrrol-3-yl)sulfonyl)benzamide]		243000 nM	
O=C(NS(=O)(=O)c1ccc(NC[C@H]2COCCO2)c([N+](=O)[O-])c1)c1cc(F)c(N2CCN(CC3=C(c4ccc(Cl)cc4)CC4(CCC4)CC3)CC2)cc1Oc1cnc2[nH]ccc2c1 [compound 26, (S)-N-((4-(((1,4-dioxan-2-yl)methyl)amino)-3-nitrophenyl)sulfonyl)-2-((1H-pyrrolo[2,3-b]pyridin-5-yl)oxy)-4-(4-((6-(4-chlorophenyl)spiro[3.5]non-6-en-7-yl)methyl)piperazin-1-yl)-5-fluorobenzamide]			IC50 [3]: 6710 nM
O=C(NS(=O)(=O)c1ccc(NC[C@H]2COCCO2)c([N+](=O)[O-])c1)c1ncc(N2CCN(CC3=C(c4ccc(Cl)cc4)CC4(CCC4)CC3)CC2)cc1Oc1cnc2[nH]ccc2c1 [compound 27, (S)-N-((4-(((1,4-dioxan-2-yl)methyl)amino)-3-nitrophenyl)sulfonyl)-3-((1H-pyrrolo[2,3-b]pyridin-5-yl)oxy)-5-(4-((6-(4-chlorophenyl)spiro[3.5]non-6-en-7-yl)methyl)piperazin-1-yl)picolinamide]	5.2 nM	16.9 nM	
O=C(NS(=O)(=O)c1ccc(NC[C@H]2COCCO2)c([N+](=O)[O-])c1)c1ccc(N2CCN(CC3=C(c4ccc(Cl)cc4)CC4(CCC4)CC3)CC2)nc1Oc1cnc2[nH]ccc2c1 [compound 28, (S)-N-((4-(((1,4-dioxan-2-yl)methyl)amino)-3-nitrophenyl)sulfonyl)-2-((1H-pyrrolo[2,3-b]pyridin-5-yl)oxy)-6-(4-((6-(4-chlorophenyl)spiro[3.5]non-6-en-7-yl)methyl)piperazin-1-yl)nicotinamide]	968 nM	1300 nM	
O=C(NS(=O)(=O)c1ccc(NCC2CCOCC2)c([N+](=O)[O-])c1)c1ccc(N2CCN(CC3=C(c4ccc(Cl)cc4)CC4(CCC4)CC3)CC2)nc1Oc1cnc2[nH]ccc2c1 [compound 32, 2-((1H-pyrrolo[2,3-b]pyridin-5-yl)oxy)-6-(4-((6-(4-chlorophenyl)spiro[3.5]non-6-en-7-yl)methyl)piperazin-1-yl)-N-((3-nitro-4-(((tetrahydro-2H-pyran-4-yl)methyl)amino)phenyl)sulfonyl)nicotinamide]	1380 nM		
